In one series the test system is rabbit aorta VSMC. The series is described as follows: Cytotoxic activity of the Ad-RSV-TK/ganciclovir combination on smooth muscle cells in culture, by cell counting. Particulars: ganciclovir alone or Ad-RSV-TK alone. The series is classed as cell-based. Here is the method:
The activity of the adenovirus containing the TK gene, prepared in Example 1, was checked on in vitro models of smooth muscle cells. To this end, smooth muscle cells isolated from rat and rabbit aorta were infected with the recombinant adenovirus Ad-RSV-tk and incubated in the presence of ganciclovir. The effect of the Ad-RSV-tk/ganciclovir combination on cell viability is then confirmed by the colorimetric test employing MTT, 3-(4,5-dimethylthiazol-2-yl)-2,5-diphenyl-tetrazolium bromide, according to the technique described by Mosman (J. Immunol. Meth. 65 (1983) 55), or more accurately by cell counting. Briefly, vascular smooth muscle cells (VSMC) are set up in culture by enzymatic digestion of NZW rabbit aorta according to a method adapted from Chamley et al. (Cell Tissue Res. 177: 503-522 1977). The cells are maintained in the presence of 20% of foetal calf serum and used for all the tests (see below) before the tenth passage. […]
In order to measure the cytotoxic activity of the Ad-RSV-TK/ganciclovir combination, rabbit aorta VSMC are incubated in the presence of the adenovirus diluted in culture medium (DMEM, 0.5% FCS). […] Four days after the addition of ganciclovir, the cells are counted (100% cell viability corresponding to cells not transduced with Ad-RSV-TK and not treated with ganciclovir).

The conditions of series [1]: patients treated for viral infection with a non-toxic dose; cited from earlier work.

We go through one molecule from patent publication US6410011B1, “Gene therapy for restenosis using an adenoviral vector” (priority 1994, dated 2002).

With `Nc1nc(O)c2ncn(COC(CO)CO)c2n1` [ganciclovir], the “cell death with a single agent” value in the series with rabbit aorta VSMC is listed as “neither simple treatment with ganciclovir nor transduction with Ad-RSV-TK per se is associated with cell death”. In addition, in series [1], the plasma concentrations result is recorded as “above 15 μM”.
